# Laboratory results: BindingDB's records for doi:10.1016/j.bmcl.2011.07.110 (Second Military Medical University, 2011)
# Molecular target: Acrosin (Homo sapiens, UniProt P10323)
# Assay: Inhibition of human acrosin using N-alpha-benzoyl-DL-arginine para-nitroanilide-HCl as substrate after 3 hrs by spectrophotometry
# Acrosin, sequence (P10323 20-42 limits assumed): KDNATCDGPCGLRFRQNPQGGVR
# Acrosin, sequence (P10323 43-343 limits assumed): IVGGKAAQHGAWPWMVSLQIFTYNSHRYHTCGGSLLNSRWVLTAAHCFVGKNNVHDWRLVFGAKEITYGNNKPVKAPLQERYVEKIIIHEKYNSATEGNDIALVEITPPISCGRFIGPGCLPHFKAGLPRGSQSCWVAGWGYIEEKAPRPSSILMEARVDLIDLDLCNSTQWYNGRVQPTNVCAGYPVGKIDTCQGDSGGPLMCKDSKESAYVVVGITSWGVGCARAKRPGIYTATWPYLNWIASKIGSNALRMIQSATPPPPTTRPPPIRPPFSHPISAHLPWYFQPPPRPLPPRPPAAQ
row,Structure (SMILES),IC50
1,CCOC(=O)c1cc(-c2ccc(NC(C)=O)cc2)[nH]n1,23 mM
2,CCOC(=O)c1cc(-c2ccc(NC(=O)CC)cc2)[nH]n1,14 mM
3,CCCC(=O)Nc1ccc(-c2cc(C(=O)OCC)[nH]n2)cc1,17 mM
4,CCCCC(=O)Nc1ccc(-c2cc(C(=O)OCC)n[nH]2)cc1,72 mM
5,CCOC(=O)c1cc(-c2ccc(NC(=O)C(F)(F)F)cc2)[nH]n1,7.9 mM
6,CCOC(=O)c1cc(-c2ccc(NC(=O)CCCl)cc2)[nH]n1,5.76 mM
7,CCOC(=O)c1cc(-c2ccc(NC(=O)CCC(=O)O)cc2)[nH]n1,9.25 mM
8,CCOC(=O)c1cc(-c2ccc(NC(=O)CCCC(=O)O)cc2)n[nH]1,17.4 mM
9,CCOC(=O)c1cc(-c2ccc(NC(=O)c3ccccc3)cc2)n[nH]1,8 mM
10,CCOC(=O)c1cc(-c2ccc(NC(=O)c3ccc(F)cc3)cc2)[nH]n1,2.4 mM
11,CCOC(=O)c1cc(-c2ccc(NC(=O)c3c(F)cccc3F)cc2)[nH]n1,3.98 mM
12,CCOC(=O)c1cc(-c2ccc(NC(=O)c3ccccc3Cl)cc2)n[nH]1,0.11 mM
13,CCOC(=O)c1cc(-c2ccc(NC(=O)c3ccc(Cl)cc3)cc2)n[nH]1,3.31 mM
14,CCOC(=O)c1cc(-c2ccc(NC(=O)c3ccc(Cl)cc3Cl)cc2)[nH]n1,0.44 mM
15,CCOC(=O)c1cc(-c2ccc(NC(=O)c3c(Cl)cccc3Cl)cc2)n[nH]1,4.8 mM
16,CCOC(=O)c1cc(-c2ccc(NC(=O)c3ccccc3Br)cc2)n[nH]1,2.4 mM
17,CCOC(=O)c1cc(-c2ccc(NC(=O)c3ccc(C)cc3)cc2)n[nH]1,34.6 mM
18,CCOC(=O)c1cc(-c2ccc(NC(=O)c3ccc(OC)cc3)cc2)n[nH]1,0.8 mM
19,CCOC(=O)c1cc(-c2ccc(NC(=O)c3ccc(CCl)cc3)cc2)n[nH]1,3.31 mM
20,CCOC(=O)c1cc(-c2ccc(NC(=O)Cc3ccccc3)cc2)[nH]n1,0.47 mM
21,CCOC(=O)c1cc(-c2ccc(NC(=O)C(CC)c3ccccc3)cc2)n[nH]1 (configuration not stated),3.3 mM
22,CCOC(=O)c1cc(-c2ccc(NS(=O)(=O)c3ccc(C)cc3)cc2)[nH]n1,0.032 mM
